Test results as given in PubChem BioAssay (NCI).
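The compound was tested at five concentrations on cells cultured in 96-well plates, with a 48-hour exposure period. The concentration for 50% growth inhibition is given as GI50. TGI: total growth inhibition.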

Tests used:
Assay in all cases: growth of human tumour cells (NCI), 48 h
SK-MEL-2 melanoma = system: SK-MEL-2 melanoma
LOX IMVI melanoma = system: LOX IMVI melanoma
NCI/ADR-RES ovarian = system: NCI/ADR-RES ovarian
T-47D breast = system: T-47D breast
NCI-H522 lung = system: NCI-H522 lung
SK-MEL-5 melanoma = system: SK-MEL-5 melanoma
HT29 colon = system: HT29 colon
OVCAR-3 ovarian = system: OVCAR-3 ovarian
SR leukemia = system: SR leukemia
SNB-75 CNS = system: SNB-75 CNS
HS 578T breast = system: HS 578T breast
DU-145 prostate = system: DU-145 prostate
SW-620 colon = system: SW-620 colon
SF-268 CNS = system: SF-268 CNS
HL-60(TB) leukemia = system: HL-60(TB) leukemia
TK-10 renal = system: TK-10 renal
MALME-3M melanoma = system: MALME-3M melanoma
SK-OV-3 ovarian = system: SK-OV-3 ovarian
A549 NSCLC = system: A549 NSCLC
PC-3 prostate = system: PC-3 prostate
UO-31 renal = system: UO-31 renal
A498 renal = system: A498 renal
SF-295 CNS = system: SF-295 CNS
UACC-257 melanoma = system: UACC-257 melanoma
CAKI-1 renal = system: CAKI-1 renal
RXF 393 renal = system: RXF 393 renal
786-0 renal = system: 786-0 renal
RPMI-8226 leukemia = system: RPMI-8226 leukemia
U251 CNS = system: U251 CNS
OVCAR-8 ovarian = system: OVCAR-8 ovarian
K-562 leukemia = system: K-562 leukemia
UACC-62 melanoma = system: UACC-62 melanoma
HOP-92 NSCLC = system: HOP-92 NSCLC
ACHN renal = system: ACHN renal
SF-539 CNS = system: SF-539 CNS
NCI-H460 lung = system: NCI-H460 lung
IGROV1 ovarian = system: IGROV1 ovarian
SK-MEL-28 melanoma = system: SK-MEL-28 melanoma
EKVX NSCLC = system: EKVX NSCLC
OVCAR-4 ovarian = system: OVCAR-4 ovarian
BT-549 breast = system: BT-549 breast
MCF7 breast = system: MCF7 breast
MDA-MB-231 breast = system: MDA-MB-231 breast
HCT-15 colon = system: HCT-15 colon
HOP-62 NSCLC = system: HOP-62 NSCLC
SNB-19 CNS = system: SNB-19 CNS
OVCAR-5 ovarian = system: OVCAR-5 ovarian
KM12 colon = system: KM12 colon
MOLT-4 leukemia = system: MOLT-4 leukemia
MDA-MB-435 = system: MDA-MB-435
SN12C renal = system: SN12C renal
HCT-116 colon = system: HCT-116 colon
M14 melanoma = system: M14 melanoma
COLO 205 colon = system: COLO 205 colon
HCC-2998 colon = system: HCC-2998 colon
NCI-H226 lung = system: NCI-H226 lung

## Cc1nc(-c2cc3ccccc3oc2=O)ccc1C(=O)/C=C/c1ccccn1
SK-MEL-2 melanoma
  GI50: > 100 µM
  TGI: > 100 µM
LOX IMVI melanoma
  GI50: 3.2 µM
  TGI: > 100 µM
NCI/ADR-RES ovarian
  GI50: > 100 µM
  TGI: > 100 µM
T-47D breast
  GI50: > 100 µM
  TGI: > 100 µM
NCI-H522 lung
  GI50: > 100 µM
  TGI: > 100 µM
SK-MEL-5 melanoma
  GI50: > 100 µM
  TGI: > 100 µM
HT29 colon
  GI50: > 100 µM
  TGI: > 100 µM
OVCAR-3 ovarian
  GI50: > 100 µM
  TGI: > 100 µM
SR leukemia
  GI50: 5.3 µM
  TGI: > 100 µM
SNB-75 CNS
  GI50: > 100 µM
  TGI: > 100 µM
HS 578T breast
  GI50: > 100 µM
  TGI: > 100 µM
DU-145 prostate
  GI50: > 100 µM
  TGI: > 100 µM
SW-620 colon
  GI50: 6.77 µM
  TGI: > 100 µM
SF-268 CNS
  GI50: > 100 µM
  TGI: > 100 µM
HL-60(TB) leukemia
  GI50: > 100 µM
  TGI: > 100 µM
TK-10 renal
  GI50: > 100 µM
  TGI: > 100 µM
MALME-3M melanoma
  GI50: > 100 µM
  TGI: > 100 µM
SK-OV-3 ovarian
  GI50: > 100 µM
  TGI: > 100 µM
A549 NSCLC
  GI50: > 100 µM
  TGI: > 100 µM
PC-3 prostate
  GI50: > 100 µM
  TGI: > 100 µM
UO-31 renal
  GI50: > 100 µM
  TGI: > 100 µM
A498 renal
  GI50: > 100 µM
  TGI: > 100 µM
SF-295 CNS
  GI50: > 100 µM
  TGI: > 100 µM
UACC-257 melanoma
  GI50: > 100 µM
  TGI: > 100 µM
CAKI-1 renal
  GI50: > 100 µM
  TGI: > 100 µM
RXF 393 renal
  GI50: > 100 µM
  TGI: > 100 µM
786-0 renal
  GI50: > 100 µM
  TGI: > 100 µM
RPMI-8226 leukemia
  GI50: 3.41 µM
  TGI: > 100 µM
U251 CNS
  GI50: 8.49 µM
  TGI: > 100 µM
OVCAR-8 ovarian
  GI50: > 100 µM
  TGI: > 100 µM
K-562 leukemia
  GI50: 6.47 µM
  TGI: > 100 µM
UACC-62 melanoma
  GI50: > 100 µM
  TGI: > 100 µM
HOP-92 NSCLC
  GI50: 7.25 µM
  TGI: > 100 µM
ACHN renal
  GI50: > 100 µM
  TGI: > 100 µM
SF-539 CNS
  GI50: > 100 µM
  TGI: > 100 µM
NCI-H460 lung
  GI50: > 100 µM
  TGI: > 100 µM
IGROV1 ovarian
  GI50: > 100 µM
  TGI: > 100 µM
SK-MEL-28 melanoma
  GI50: > 100 µM
  TGI: > 100 µM
EKVX NSCLC
  GI50: > 100 µM
  TGI: > 100 µM
OVCAR-4 ovarian
  GI50: > 100 µM
  TGI: > 100 µM
BT-549 breast
  GI50: > 100 µM
  TGI: > 100 µM
MCF7 breast
  GI50: 3.72 µM
  TGI: > 100 µM
MDA-MB-231 breast
  GI50: > 100 µM
  TGI: > 100 µM
HCT-15 colon
  GI50: > 100 µM
  TGI: > 100 µM
HOP-62 NSCLC
  GI50: > 100 µM
  TGI: > 100 µM
SNB-19 CNS
  GI50: > 100 µM
  TGI: > 100 µM
OVCAR-5 ovarian
  GI50: > 100 µM
  TGI: > 100 µM
KM12 colon
  GI50: > 100 µM
  TGI: > 100 µM
MOLT-4 leukemia
  GI50: > 100 µM
  TGI: > 100 µM
MDA-MB-435
  GI50: > 100 µM
  TGI: > 100 µM
SN12C renal
  GI50: > 100 µM
  TGI: > 100 µM
HCT-116 colon
  GI50: 6.34 µM
  TGI: > 100 µM
M14 melanoma
  GI50: > 100 µM
  TGI: > 100 µM
COLO 205 colon
  GI50: > 100 µM
  TGI: > 100 µM
HCC-2998 colon
  GI50: > 100 µM
  TGI: > 100 µM
NCI-H226 lung
  GI50: > 100 µM
  TGI: > 100 µM
